# In US20060292255A1, “Pharmaceutical and therapeutic compositions derived from Garcinia mangostana L plant” (priority 2004, published 2006):
# Experiments:
# DNA topoisomerase = settings: Tosa et al., 1997; cited from earlier work
# serotonin receptors = settings: Chairungsrilerd et al., 1996, 1998; cited from earlier work
# COX 1 = COX 1 (Homo sapiens, UniProt P23219); settings: Nakatani et al., 2002, 2004; cited from earlier work
# cAMP phosphodiesterase = settings: Chairungsrilerd and Takeuchi et al., 1996; cited from earlier work
# [1] = system: L-929 mouse fibroblast cells; assay: Toxicity Study 1: cytotoxicity of serially diluted extract, microscopic scoring; assay type: cell-based; settings: control media/extracts undiluted; triplicate wells
# Experimental: The purpose of this study was to evaluate an extract of mangosteen for its level of cytotoxicity in a mammalian system. Accordingly, a serially diluted extract of a 10% mangosteen pericarp test article for cytotoxicity to mammalian cells in culture (L-929 mouse fibroblast cells, from the American Type Culture Collection: CCL-1). The test article, originally a 10% mangosteen preparation) was incubated in an appropriate volume of cell culture medium (Earle's Minimal Essential Medium, E-MEM) in a sterile vessel for 24 to 25 hours at 37 ±1° C. At the end of the extraction period, the extract was decanted from the test article. A series of eight (8) dilutions of the extract was prepared in culture medium in a two-fold dilution sequence. After the dilutions were prepared, the maintenance culture medium was removed from test culture wells and replaced with 1 ml of article test dilutions. […] The cultures were evaluated for cytotoxic effects by microscopic examination at 24, 48, and 72±4 hours of incubation, and the results scored and recorded. […]
# Criteria for evaluating cytotoxicity included morphologic changes in cells, such as granulation, crenation, or rounding, and loss of viable cells from the monolayer by lysis or detachment. […] Degrees of toxicity are scored according to the scheme in Table 2: […]
# [2] = system: mammalian cells in culture; assay: Toxicity Study 2: cytotoxicity of serially diluted extract, microscopic scoring; assay type: cell-based; settings: control media/extracts undiluted
# Experimental: The purpose of this study was to evaluate a serially diluted extract of a 40% mangosteen pericarp test article for cytotoxicity to mammalian cells in culture. The test article was incubated in an appropriate volume of E-MEM in a sterile vessel for 24 to 25 hours at 37 f 1° C. After measures were taken to create a clear supernatant, a series of eight (8) dilutions of the extract were prepared in E-MEM in a two-fold dilution sequence. After the dilutions were prepared, the maintenance culture media was removed from test culture wells and replaced with 1 ml of test media dilutions in triplicate wells. The positive control media, test article extract, and control extracts were added at the same time to the culture plate in triplicate wells. The plates were incubated for 72 hours at 37±1° C. in a humidified atmosphere of 5±1% CO2 in air. The cultures were evaluated for cytotoxic effects by microscopic examination at 24,48 and 72±4 hours of incubation and the results scored and recorded. After the 24 hour extraction the liquid was transferred to a 50 mL conical tube and centrifuged for 10 minutes at 3000 rpm. A small pellet of powder created by the separation was discarded, the resultant supernatant was clear with a light brown color and a pH of 7.5.
# Criteria for evaluating cytotoxicity included morphologic changes in cells, such as granulation, crenation, or rounding, and loss of viable cells from the monolayer by lysis or detachment. The validity of the test requires that negative control cultures maintain a healthy normal appearance throughout the duration of the test. Degrees of toxicity are scored as in Table 1, above: […]
# Sequence of COX 1 (P23219 24-599): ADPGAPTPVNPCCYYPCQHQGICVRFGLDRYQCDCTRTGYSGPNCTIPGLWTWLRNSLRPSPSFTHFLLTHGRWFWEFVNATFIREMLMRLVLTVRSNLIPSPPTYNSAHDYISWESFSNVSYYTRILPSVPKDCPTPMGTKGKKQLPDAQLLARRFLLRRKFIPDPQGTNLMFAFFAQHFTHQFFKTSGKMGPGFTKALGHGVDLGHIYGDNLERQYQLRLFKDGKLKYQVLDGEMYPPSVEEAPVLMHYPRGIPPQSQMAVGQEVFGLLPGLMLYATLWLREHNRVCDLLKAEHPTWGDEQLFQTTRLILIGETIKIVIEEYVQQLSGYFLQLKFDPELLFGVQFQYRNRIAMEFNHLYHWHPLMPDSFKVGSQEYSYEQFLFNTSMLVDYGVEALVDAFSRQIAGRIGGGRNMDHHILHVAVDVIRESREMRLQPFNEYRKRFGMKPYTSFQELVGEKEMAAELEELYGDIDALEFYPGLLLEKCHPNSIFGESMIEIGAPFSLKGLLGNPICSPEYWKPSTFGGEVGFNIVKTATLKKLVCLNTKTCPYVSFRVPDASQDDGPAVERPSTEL
compound,measurement,setting,value
CC(C)=CCc1c(O)cc2oc3cc(O)c(O)c(CC=C(C)C)c3c(=O)c2c1O [gamma-mangostin],inhibition of DNA topoisomerase,DNA topoisomerase,inhibits
same,action on serotonin receptors,serotonin receptors,antagonist
same,inhibition of the activity of cyclooxygenase COX 1,COX 1,directly inhibit the activity
COc1c(O)cc2oc3cc4c(c(O)c3c(=O)c2c1CC=C(C)C)CC(O)C(C)(C)O4 (centres unmarked) [Mangostanol],inhibition of cAMP phosphodiesterase,cAMP phosphodiesterase,strong inhibition
"[Cl][Cd][Cl] [Positive Control, CdCl2]",Cytotoxicity Scores at 72 Hr,[1],4/4/4
same,Cytoxicity Scores 24 Hr,[2],4/4/4
same,Cytoxicity Scores 48 Hr,[2],4/4/4
same,Cytoxicity Scores 72 Hr,[2],4/4/4
